How the values were obtained:
pH of MgSO4 grades = format: physicochemical; conditions: MgSO4 grade
[1] = nBTPT stability on YaraVera Amidas (UAS) during storage, HPLC analysis of nBTPT content; format: physicochemical; conditions: for Stabilizing effect on nBTPT on UAS: Experiment 4, MgSO4/MgO combinations, FIG. 4
Method: For lab scale experiments, 1.2 kg of solid fertilizer material was added to a lab scale drum. […] A residence time of 10 minutes was applied and the rotating speed of the drum was consequently the same in each experiment. […] Before use, the moisture-repellent coating was preheated to 80° C. Larger scale experiments with amounts up to 40 kg of fertilizer material were performed in a concrete mixer. The samples were stored under several conditions, dependent on the type of samples: • Bagged at room temperature (18-25° C.) • Bagged at 40° C. • Open to air at room temperature (18-25° C.) 3.

| Structure (SMILES) | pH (pH of MgSO4 grades) | Stabilizing effect on nBTPT on UAS ([1]; 462 ppm nBTPT) | also measured |
| --- | --- | --- | --- |
| O=S(=O)([O-])[O-].[Mg+2] [MgSO4 99.999%] | 6.1 | – | – |
| O=S(=O)([O-])[O-].[Mg+2] [MgSO4 99.5%] | 8.5 | – | – |
| [O]=[Mg] [MgO, magnesium oxide, reference compound] | – | more effective than CaO | – |
| O=S(=O)([O-])[O-].[Na+].[Na+] [Na2SO4, reference compound] | – | – | Stability of nBTPT on YaraVera Amidas product ([1]; Experiment 3, open plastic containers at room temperature for 21 days, 462 ppm nBTPT, FIG. 3): negative effect |
| O=S(=O)([O-])[O-].[Mg+2] [MgSO4, magnesium sulphate] | – | little effect | Stabilizing effect on nBTPT in the presence of UAS ([1]; Experiment 2, open to air at room temperature 40 days (FIG. 2A) and in bags at 40° C. 8 days (FIG. 2B), 462 ppm nBTPT): comparable with the effect of the prior art compound (CaO); Stabilizing effect at more than 1 weight % of magnesium sulphate ([1]; more than 1 weight % in the composition): did not produce a proportionally better stabilizing effect |

Reference: patent US11578009B2, “Urea-based blend composition and method for the manufacture thereof” (YARA INTERNATIONAL ASA, priority 2018, dated 2023)
